Assay results reported in ChEMBL document CHEMBL1155747, “Cytotoxic diacetylenes from the stony coral Montipora species” (2001).
≈ marks a conversion by molar mass, not a printed value.

Assays:
Assay type in all cases: functional
[1] = tested on: HCT-15; assay: Cytotoxicity against human HCT15 cells; conditions: read-out: ED50 (the source's name)
[2] = tested on: SK-OV-3; assay: Cytotoxicity against human SKOV3 cells; conditions: read-out: ED50 (the source's name)
[3] = tested on: XF498; assay: Cytotoxicity against human XF498 cells; conditions: read-out: ED50 (the source's name)
[4] = tested on: A549; assay: Cytotoxicity against human A549 cells; conditions: read-out: ED50 (the source's name)
[5] = tested on: SK-MEL-2; assay: Cytotoxicity against human SK-MEL-2 cells; conditions: read-out: ED50 (the source's name)
[6] = tested on: HCT-116; assay: Inhibition of cell cycle in human HCT116 cells assessed as increase in apoptotic fraction at 100 ug/mL after 24 hrs by flow cytometry; set-up: scale not given: the % may be the effect or the level left

Structure (SMILES)	EC50 [1]	EC50 [2]	EC50 [3]	EC50 [4]	EC50 [5]	Activity [6]
C=CCCCCCC#CC#CCOCCO [MONTIPORYNE H]	24.1 µg/mL (≈ 109 µM)	17.9 µg/mL (≈ 81.4 µM)	16.9 µg/mL (≈ 76.6 µM)	22.7 µg/mL (≈ 103 µM)	25.1 µg/mL (≈ 114 µM)	
CCCCCCCC#CC#CCO	5.9 µg/mL (≈ 33.1 µM)	4.63 µg/mL (≈ 26 µM)	5.59 µg/mL (≈ 31.4 µM)	5.48 µg/mL (≈ 30.7 µM)	4.45 µg/mL (≈ 25 µM)	
COc1cccc2c1C(=O)c1c(O)c3c(c(O)c1C2=O)C[C@@](O)(C(=O)CO)C[C@@H]3O[C@H]1C[C@H](N)[C@H](O)[C@H](C)O1 [DOXORUBICIN]	0.04 µg/mL (≈ 0.0736 µM)	0.13 µg/mL (≈ 0.239 µM)	0.08 µg/mL (≈ 0.147 µM)	0.02 µg/mL (≈ 0.0368 µM)	0.03 µg/mL (≈ 0.0552 µM)	
C=CCCCCCCCC#CC#CCOCC(=O)OC [METHYLMONTIPORATE B]	> 30 µg/mL	> 30 µg/mL	> 30 µg/mL	> 30 µg/mL	> 30 µg/mL	
C=CCCCCCC#CC#C/C=C\C(C)=O	11.3 µg/mL (≈ 52.7 µM)	5.23 µg/mL (≈ 24.4 µM)	29.2 µg/mL (≈ 136 µM)	> 30 µg/mL	4.61 µg/mL (≈ 21.5 µM)	
C=CCCCCCC#CC#C/C=C/C(C)=O	4.56 µg/mL (≈ 21.3 µM)	3.52 µg/mL (≈ 16.4 µM)	5.5 µg/mL (≈ 25.7 µM)	6.39 µg/mL (≈ 29.8 µM)	4.21 µg/mL (≈ 19.6 µM)	
C=CCCCCCC#CC#CCOCC(=O)[O-].[Na+] [MONTIPORIC AICD C]	> 30 µg/mL	> 30 µg/mL	> 30 µg/mL	> 30 µg/mL	> 30 µg/mL	
CCCCCCCC#CC#C/C=C/C(C)=O [MONTIPORYNE A]						19%
C=CCCCCCCCC#CC#CCOCC(=O)[O-].[Na+]	4.47 µg/mL	4.88 µg/mL	4.96 µg/mL	6.26 µg/mL	4.68 µg/mL	
C=CCCCCCC#CC#CC(O)CC(C)=O (racemic)	3.42 µg/mL (≈ 14.7 µM)	3.85 µg/mL (≈ 16.6 µM)	3.87 µg/mL (≈ 16.7 µM)	4.97 µg/mL (≈ 21.4 µM)	3.74 µg/mL (≈ 16.1 µM)	
C=CCCCCCCCC#CC#CC(O)CC(C)=O (racemic) [MONTIPORYNE K]	4.18 µg/mL (≈ 16.1 µM)	3.34 µg/mL (≈ 12.8 µM)	4.45 µg/mL (≈ 17.1 µM)	4.91 µg/mL (≈ 18.9 µM)	3.52 µg/mL (≈ 13.5 µM)	
C=CCCCCCCCC#CC#CCO	3.32 µg/mL (≈ 16.2 µM)	3.23 µg/mL (≈ 15.8 µM)	5.26 µg/mL (≈ 25.7 µM)	3.9 µg/mL (≈ 19.1 µM)	3.94 µg/mL (≈ 19.3 µM)	
C=CCCCCCC#CC#CCO [MONTIPORYNE G]	12.9 µg/mL (≈ 73.4 µM)	9.79 µg/mL (≈ 55.5 µM)	10.8 µg/mL (≈ 61.2 µM)	13.8 µg/mL (≈ 78.2 µM)	9.56 µg/mL (≈ 54.2 µM)	
CCCCCCCC#CC#CCOCC(=O)[O-].[Na+] [MONTIPORIC ACID A SODIUM SALT]	8.3 µg/mL	7.5 µg/mL	7.72 µg/mL	6.31 µg/mL	7.97 µg/mL	
CCCCCCCC#CC#CCOCC(=O)OC [METHYLMONTIPORATE A]	25.6 µg/mL (≈ 102 µM)	20.5 µg/mL (≈ 82 µM)	> 30 µg/mL	> 30 µg/mL	> 30 µg/mL	
CCCCCCCC#CC#CC(O)CC(C)=O (racemic) [MONTIPORYNE I]	3.73 µg/mL (≈ 15.9 µM)	1.81 µg/mL (≈ 7.72 µM)	3.7 µg/mL (≈ 15.8 µM)	4.17 µg/mL (≈ 17.8 µM)	1.4 µg/mL (≈ 5.97 µM)	
